Reference: PMC7816042, “Insights into the Structure-Activity Relationship of Glycosides as Positive Allosteric Modulators Acting on P2X7 Receptors” (Molecular Pharmacology, 2021)
Several values for one entry are separate records, joined by “and”; a condition that tells them apart may be missing. Equal entries are not always repeated. Structures can show the parent of a compound that is named as a salt.

Target: T1, human P2X7 (Homo sapiens, UniProt Q99572)
T1 construct: expressed in transfected cells
T1 sequence (Q99572 1-595): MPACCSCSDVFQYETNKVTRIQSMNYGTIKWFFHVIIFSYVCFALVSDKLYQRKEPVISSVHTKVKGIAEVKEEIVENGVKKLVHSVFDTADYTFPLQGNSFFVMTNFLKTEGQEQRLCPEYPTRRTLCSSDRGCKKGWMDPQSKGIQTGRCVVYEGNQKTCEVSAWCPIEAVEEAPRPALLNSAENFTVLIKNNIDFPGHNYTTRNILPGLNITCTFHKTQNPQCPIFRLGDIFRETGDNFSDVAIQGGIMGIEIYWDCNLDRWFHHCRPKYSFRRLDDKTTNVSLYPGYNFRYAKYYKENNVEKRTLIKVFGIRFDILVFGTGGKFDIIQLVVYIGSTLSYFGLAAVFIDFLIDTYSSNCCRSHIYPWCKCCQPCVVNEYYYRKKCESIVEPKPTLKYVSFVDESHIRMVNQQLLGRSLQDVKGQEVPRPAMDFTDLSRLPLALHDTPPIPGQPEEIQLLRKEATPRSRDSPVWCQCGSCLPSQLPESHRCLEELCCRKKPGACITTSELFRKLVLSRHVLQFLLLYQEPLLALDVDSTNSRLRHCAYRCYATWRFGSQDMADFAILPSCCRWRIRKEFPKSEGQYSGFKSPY
Assay: YO-PRO-1 dye uptake assay in HEK-hP2X7 cells
Format: cell-based
Conditions: for ATP-induced YO-PRO-1 response in fixed-concentration screen: 200 µM ATP, compared with ATP + DMSO; for ATP-induced YO-PRO-1 response in fixed-concentration screen / PAM effect on ATP dose-response curve / EC50 ratio / Maximum response (fold increase): 10 µM glycoside; for PAM effect on ATP dose-response curve: HEK-hP2X7, result in words; for EC50 ratio: average EC50 for ATP + vehicle of each set of experiments used; for Maximum response (fold increase): maximum response defined at 1 mM ATP
Description: ATP-induced dye uptake experiments were performed as described previously ([Bidula et al., 2019b]). Briefly, HEK-hP2X7 cells were plated at 2 × 10^4 cells per well (100 μl per well) in complete medium and left overnight to attach to poly-D-lysine–coated 96-well plates. YO-PRO-1 iodide was prepared in a low divalent buffered solution ([…], 2 mM KCl, 13 mM D-glucose, 10 mM HEPES, 0.2 mM CaCl2 pH 7.3) to a final concentration of 2 μM. Medium was removed from the plate using a manual multichannel pipette and YO-PRO-1 containing buffer applied to wells (180 μl per well). […] A Flexstation 3 plate reader (Molecular Devices, Sunnyvale, CA) was used to record YO-PRO-1 fluorescence in HEK-hP2X7 for 300 seconds after the addition of ATP (at 10× final concentration) with/without ginsenoside compounds or vehicle (DMSO). Plates were allowed to warm up to 37°C for 10 minutes before initiating the recording. Baseline recordings were made for 40 seconds before compound addition using the Flexstation 3 fluidics system. YO-PRO-1 fluorescence was measured at 520 nm after excitation at 490 nm (auto cutoff at 495 nm), and the sample interval was 3.5 seconds. Flexstation settings were photomultiplier tube (PMT) medium, six reads per well, pipette height 170, and a rate of injection of 3. Data were acquired using Softmax Pro version 5.4 (Molecular Devices). To analyze the data, area under the dye uptake curve was calculated in Softmax Pro version 5 using zero baseline data with a lag time of 50 seconds (50–300 seconds).
Results are expressed as means ± S.D. from the indicated number of experiments. For YO-PRO-1 dye uptake and intracellular calcium experiments, each independent experiment used triplicate wells, and the means of the replicates were collated and plotted. Technical replicates were used to ensure reliability of fluorescence values. […] Dose-response curves were plotted by a nonlinear regression fit with variable slope using GraphPad Prism software version 7. Half-maximal responses are expressed as EC50 values with 95% confidence intervals. These values were calculated from the collated data for each compound from three independent experiments. Statistical differences were determined by analysis of the data by one-way ANOVA followed by Dunnett’s multiple comparison test or Sidak’s multiple comparison test using GraphPad Prism version 7. P < 0.05 was the accepted minimum level of significance.

SMILES	ATP-induced YO-PRO-1 response in fixed-concentration screen	PAM effect on ATP dose-response curve	EC50 ratio	Maximum response (fold increase)	Effect of AZ10606120 pretreatment on response to ATP + glycoside (P2X7 dependence) (10 µM AZ10606120 pretreatment)	Toxic effect on cells (YO-PRO-1 uptake without ATP or without P2X7)
CC(C)=CCC[C@](C)(O)[C@H]1CC[C@]2(C)[C@@H]1[C@H](O)C[C@@H]1[C@@]3(C)CC[C@H](O[C@@H]4O[C@H](CO)[C@@H](O)[C@H](O)[C@H]4O[C@@H]4O[C@H](CO)[C@@H](O)[C@H](O)[C@H]4O)C(C)(C)[C@@H]3CC[C@]12C (single isomer, unassigned) [ginsenoside-Rg3 (mixed isomers), ginsenoside-Rg3]	small increase in the ATP-induced YO-PRO-1 response, which was not statistically significant	–	–	–	–	–
CC[C@H](CC[C@@H](C)[C@H]1CC[C@H]2[C@@H]3CC=C4C[C@@H](O[C@@H]5O[C@H](CO)[C@@H](O)[C@H](O)[C@H]5O)CC[C@]4(C)[C@H]3CC[C@]12C)C(C)C [Daucosterol, daucosterol]	–	no effect on the ATP dose-response curves	0.7	1.33 fold	–	–
COC(=O)[C@@]1(C)CC[C@]2(C(=O)O)CC[C@]3(C)C(=CC[C@@H]4[C@@]5(C)C[C@H](O)[C@H](O[C@@H]6OC[C@@H](O[C@@H]7O[C@H](CO)[C@@H](O)[C@H](O)[C@H]7O)[C@H](O)[C@H]6O)[C@@](C)(CO)[C@@H]5CC[C@]43C)[C@@H]2C1 [Esculentoside A, esculentoside A]	no modulation of P2X7	inactive	0.8	0.94 fold	–	–
CC(C)=CCC[C@@](C)(O)[C@H]1CC[C@]2(C)[C@@H]1[C@H](O)C[C@@H]1[C@@]3(C)CC[C@H](O[C@@H]4O[C@H](CO)[C@@H](O)[C@H](O)[C@H]4O)C(C)(C)[C@@H]3CC[C@]12C [Ginsenoside-20(R)-Rh2, 20(R)-ginsenoside-Rh2]	–	–	0.8	1.53 fold	–	–
CC(C)=CCC[C@](C)(O)[C@H]1CC[C@]2(C)[C@@H]1[C@H](O)C[C@@H]1[C@@]3(C)CC[C@H](O[C@@H]4O[C@H](CO)[C@@H](O)[C@H](O)[C@H]4O)C(C)(C)[C@@H]3CC[C@]12C [Ginsenoside-20(S)-Rh2, 20(S)-ginsenoside-Rh2]	–	–	1.8	2.6 fold	–	–
CC(C)=CCC[C@](C)(O[C@@H]1O[C@H](CO[C@@H]2O[C@H](CO)[C@@H](O)[C@H](O)[C@H]2O)[C@@H](O)[C@H](O)[C@H]1O)[C@H]1CC[C@]2(C)[C@@H]1[C@H](O)C[C@@H]1[C@@]3(C)CC[C@H](O[C@@H]4O[C@H](CO)[C@@H](O)[C@H](O)[C@H]4O[C@@H]4O[C@H](CO)[C@@H](O)[C@H](O)[C@H]4O)C(C)(C)[C@@H]3CC[C@]12C [Ginsenoside-Rb1, ginsenoside-Rb1]	–	only type I PAM activity	1.2	1.9 fold and 1.96 fold	–	–
CC1(C)[C@@H](O[C@H]2O[C@H](C(=O)O)[C@@H](O)[C@H](O)[C@H]2O[C@@H]2O[C@H](C(=O)O)[C@@H](O)[C@H](O)[C@H]2O)CC[C@]2(C)[C@H]3C(=O)C=C4[C@@H]5C[C@@](C)(C(=O)O)CC[C@]5(C)CC[C@@]4(C)[C@]3(C)CC[C@@H]12 [Glycyrrhizic acid, glycyrrhizic acid]	no modulation of P2X7	–	–	–	–	–
CC(C)=CCC[C@@](O)(CO[C@@H]1O[C@H](CO)[C@@H](O)[C@H](O)[C@H]1O)[C@H]1CC[C@]2(C)[C@@H]1CC[C@@H]1[C@@]3(C=O)CC[C@H](O[C@@H]4OC[C@H](O)[C@H](O[C@@H]5OC[C@@H](O)[C@H](O)[C@H]5O)[C@H]4O[C@@H]4O[C@@H](C)[C@H](O)[C@@H](O)[C@H]4O)C(C)(C)[C@@H]3CC[C@]12C [Gypenoside XLIX, gypenoside XLIX]	small increase in the ATP-induced YO-PRO-1 response, which was not statistically significant	did not reduce the EC50 value for ATP	0.9	1.9 fold	–	–
C[C@H](CC[C@@H](O[C@@H]1O[C@H](CO[C@@H]2O[C@H](CO)[C@@H](O)[C@H](O)[C@H]2O)[C@@H](O)[C@H](O)[C@H]1O[C@@H]1O[C@H](CO)[C@@H](O)[C@H](O)[C@H]1O)C(C)(C)O)[C@H]1CC[C@@]2(C)[C@@H]3CC=C4[C@@H](CC[C@H](O[C@@H]5O[C@H](CO[C@@H]6O[C@H](CO)[C@@H](O)[C@H](O)[C@H]6O)[C@@H](O)[C@H](O)[C@H]5O)C4(C)C)[C@]3(C)[C@H](O)C[C@]12C [Mogroside V, mogroside V]	no modulation of P2X7	–	–	–	–	–
C[C@@H]1O[C@@H](O[C@H]2C[C@@H](O)[C@]3(CO)[C@H]4[C@H](O)C[C@]5(C)[C@@H](C6=CC(=O)OC6)CC[C@]5(O)[C@@H]4CC[C@]3(O)C2)[C@H](O)[C@H](O)[C@H]1O [Ouabain, ouabain, reference compound]	–	no effect on the ATP dose-response curves	1.1	1.08 fold	–	–
CC(=O)O[C@@H]1C[C@]2(O)[C@H](CC[C@]3(C)[C@@H](c4ccc(=O)oc4)CC[C@@]32O)[C@@]2(C)CC[C@H](O[C@@H]3O[C@H](CO)[C@@H](O)[C@H](O)[C@H]3O)C=C12 [Scilliroside]	–	no effect on the ATP dose-response curves	1.3	1.07 fold	–	–
C[C@H]1CC[C@@H]2[C@@H](C)[C@H]3[C@H](C[C@H]4[C@@H]5CC=C6C[C@@H](O[C@@H]7O[C@H](CO)[C@H](O)[C@H](O[C@@H]8O[C@H](CO)[C@@H](O)[C@H](O)[C@H]8O)[C@H]7O[C@@H]7O[C@@H](C)[C@H](O)[C@@H](O)[C@H]7O)CC[C@]6(C)[C@H]5CC[C@]34C)N2C1 [Solanine, solanine hydrochloride]	large increase	–	–	–	unaffected by AZ10606120 pretreatment	toxic effect on the cells
CC(C)=CCC[C@](C)(O[C@@H]1O[C@H](CO[C@@H]2OC[C@@H](O)[C@H](O)[C@H]2O)[C@@H](O)[C@H](O)[C@H]1O)[C@H]1CC[C@]2(C)[C@@H]1[C@H](O)C[C@@H]1[C@@]3(C)CC[C@H](O[C@@H]4O[C@H](CO)[C@@H](O)[C@H](O)[C@H]4O)C(C)(C)[C@@H]3CC[C@]12C [Stevenleaf (gypenoside IX), stevenleaf]	–	–	0.7	1.64 fold	–	–
C=C1C[C@@]23CC[C@H]4[C@@](C)(CCC[C@@]4(C)C(=O)O[C@@H]4O[C@H](CO)[C@@H](O)[C@H](O)[C@H]4O)[C@@H]2CC[C@]1(O[C@@H]1O[C@H](CO)[C@@H](O)[C@H](O)[C@H]1O[C@@H]1O[C@H](CO)[C@@H](O)[C@H](O)[C@H]1O)C3 [Stevioside, stevioside]	no modulation of P2X7	–	1.0	–	–	–
